Source: ChEMBL document CHEMBL1125709, “Substituent effect on the stereochemistry of H2-receptor antagonists of the phenylformamidine series. A conformation-dependent mode of interaction with the H2 receptor” (J Med Chem, 1991)

Molecular target: Histamine H2 receptor (Cavia porcellus, UniProt P47747)
Assay: Histamine H2 receptor antagonism on the right atrium of the guinea pig
Assay type: functional, tissue-based, Cardiac atrium
Conditions: read-out: pA2 (converted)

Sequence of Histamine H2 receptor (P47747 whole entry): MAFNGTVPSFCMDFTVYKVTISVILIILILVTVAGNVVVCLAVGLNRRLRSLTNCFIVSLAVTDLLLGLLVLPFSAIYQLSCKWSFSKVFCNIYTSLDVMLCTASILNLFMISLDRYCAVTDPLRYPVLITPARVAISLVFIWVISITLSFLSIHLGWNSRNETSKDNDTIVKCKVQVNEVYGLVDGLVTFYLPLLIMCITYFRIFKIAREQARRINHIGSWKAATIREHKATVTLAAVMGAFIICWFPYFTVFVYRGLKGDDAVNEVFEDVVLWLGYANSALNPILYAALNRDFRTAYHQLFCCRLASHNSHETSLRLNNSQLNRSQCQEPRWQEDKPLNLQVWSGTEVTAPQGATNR

Row | Kb [nM] | Compound
1 | 42.7 | CC/N=C/Nc1ccc(-c2c[nH]cn2)cc1
2 | 5.25 | CC(C)CN/C=N/c1ccc(-c2c[nH]cn2)cc1
3 | 7.59 | CCC(C)(C)N/C=N/c1ccc(-c2c[nH]cn2)cc1
4 | 11.2 | CCCCN/C=N/c1ccc(-c2c[nH]cn2)cc1
5 | 31.6 | CCC(CC)N/C=N/c1ccc(-c2c[nH]cn2)cc1
6 | 28.2 | CC(C)/N=C/Nc1ccc(-c2c[nH]cn2)cc1
7 | 1200 | CN/C=N/c1ccc(-c2c[nH]cn2)cc1
8 | 14.1 | CCC(C)N/C=N/c1ccc(-c2c[nH]cn2)cc1 (centres undefined)
9 | 11.2 | CC(C)(C)/N=C/Nc1ccc(-c2c[nH]cn2)cc1
